Tests used:
SN12C = test: NCI in vitro cancer screen, Renal Cancer; assay type: cell-based, human
RXF-393 = test: NCI in vitro cancer screen, Renal Cancer; assay type: cell-based, human; conditions: RXF-393
HOP-62 = test: NCI in vitro cancer screen, Non-Small Cell Lung Cancer; assay type: cell-based, human; conditions: HOP-62
K-562 = test: NCI in vitro cancer screen, Leukemia; assay type: cell-based, human; conditions: K-562
RPMI-8226 = test: NCI in vitro cancer screen, Leukemia; assay type: cell-based, human; conditions: RPMI-8226
EKVX = test: NCI in vitro cancer screen, Non-Small Cell Lung Cancer; assay type: cell-based, human
UACC-257 = test: NCI in vitro cancer screen, Melanoma; assay type: cell-based, human; conditions: UACC-257
MDA-MB-435 = test: NCI in vitro cancer screen, Melanoma; assay type: cell-based, human; conditions: MDA-MB-435
HL-60 (TB) = test: NCI in vitro cancer screen, Leukemia; assay type: cell-based, human; conditions: HL-60 (TB)
HS 578T = test: NCI in vitro cancer screen, Breast Cancer; assay type: cell-based, human
NCI-H322M = test: NCI in vitro cancer screen, Non-Small Cell Lung Cancer; assay type: cell-based, human
SF-539 = test: NCI in vitro cancer screen, CNS Cancer; assay type: cell-based; conditions: SF-539
A498 = test: NCI in vitro cancer screen, Renal Cancer; assay type: cell-based, human; conditions: A498
SF-268 = test: NCI in vitro cancer screen, CNS Cancer; assay type: cell-based, human; conditions: SF-268
SNB-75 = test: NCI in vitro cancer screen, CNS Cancer; assay type: cell-based, human; conditions: Homo sapiens, SNB-75
A549/ATCC = test: NCI in vitro cancer screen, Non-Small Cell Lung Cancer; assay type: cell-based, human
SF-295 = test: NCI in vitro cancer screen, CNS Cancer; assay type: cell-based, human; conditions: SF-295
TK-10 = test: NCI in vitro cancer screen, Renal Cancer; assay type: cell-based, human; conditions: TK-10
HT29 = test: NCI in vitro cancer screen, Colon Cancer; assay type: cell-based, human; conditions: HT29
786-0 = test: NCI in vitro cancer screen, Renal Cancer; assay type: cell-based, human; conditions: 786-0
OVCAR-3 = test: NCI in vitro cancer screen, Ovarian Cancer; assay type: cell-based, human; conditions: OVCAR-3
T-47D = test: NCI in vitro cancer screen, Breast Cancer; assay type: cell-based, human
MDA-MB-468 = test: NCI in vitro cancer screen, Breast Cancer; assay type: cell-based, human; conditions: MDA-MB-468
SW-620 = test: NCI in vitro cancer screen, Colon Cancer; assay type: cell-based, human; conditions: SW-620
NCI-H226 = test: NCI in vitro cancer screen, Non-Small Cell Lung Cancer; assay type: cell-based, human; conditions: NCI-H226
MCF7 = test: NCI in vitro cancer screen, Breast Cancer; assay type: cell-based, human; conditions: MCF7
UO-31 = test: NCI in vitro cancer screen, Renal Cancer; assay type: cell-based, human; conditions: UO-31
IGROV1 = test: NCI in vitro cancer screen, Ovarian Cancer; assay type: cell-based, human; conditions: IGROV1
[1] = Homo sapiens, read-out: LC50 (the source's name)

SMILES: COc1cc(O)cc(/C=C/c2ccc(O)c(O)c2)c1CC=C(C)C [USYDS9, (E)-2-(3-methyl-2-buten-1-yl)-3′,4′,5-trihydroxy-3-methoxystilbene]
- TGI (SN12C): 83.5 µM
- GI50 (SN12C; Homo sapiens): 1.76 µM
- CC50 (SN12C; [1]): > 100 µM
- GI50 (RXF-393; Homo sapiens): 0.23 µM
- CC50 (RXF-393; [1]): > 100 µM
- TGI (RXF-393): 0.63 µM
- TGI (HOP-62): >100 µM
- GI50 (HOP-62; Homo sapiens): 2.87 µM
- CC50 (HOP-62; [1]): > 100 µM
- GI50 (K-562; Homo sapiens, K562): 0.33 µM
- CC50 (K-562; Homo sapiens, K562, read-out: LC50 (the source's name)): > 100 µM
- TGI (K-562): 13.9 µM
- GI50 (RPMI-8226; Homo sapiens): 0.45 µM
- CC50 (RPMI-8226; [1]): > 100 µM
- TGI (RPMI-8226): >100 µM
- TGI (EKVX): >100 µM
- GI50 (EKVX; Homo sapiens): 26.4 µM
- CC50 (EKVX; [1]): > 100 µM
- GI50 (UACC-257; Homo sapiens): 6.15 µM
- CC50 (UACC-257; [1]): > 100 µM
- TGI (UACC-257): 59.2 µM
- GI50 (MDA-MB-435; Homo sapiens): 0.13 µM
- CC50 (MDA-MB-435; [1]): > 100 µM
- TGI (MDA-MB-435): 0.42 µM
- TGI (HL-60 (TB)): 0.43 µM
- GI50 (HL-60 (TB); Homo sapiens): 0.2 µM
- CC50 (HL-60 (TB); [1]): 0.95 µM
- TGI (HS 578T): 0.73 µM
- GI50 (HS 578T; Homo sapiens): 0.2 µM
- CC50 (HS 578T; [1]): > 100 µM
- TGI (NCI-H322M): >100 µM
- GI50 (NCI-H322M; Homo sapiens): 0.76 µM
- LC50 (50% lethal concentration) (NCI-H322M; Homo sapiens): > 100 µM
- GI50 (SF-539; Homo sapiens): 0.28 µM
- CC50 (SF-539; [1]): > 100 µM
- TGI (SF-539): 1.02 µM
- TGI (A498): 53.5 µM
- GI50 (A498; Homo sapiens): 10.3 µM
- CC50 (A498; [1]): > 100 µM
- GI50 (SF-268; Homo sapiens): 0.63 µM
- CC50 (SF-268; [1]): > 100 µM
- TGI (SF-268): 37.6 µM
- GI50 (SNB-75): 0.24 µM
- CC50 (SNB-75; read-out: LC50 (the source's name)): > 100 µM
- TGI (A549/ATCC): 41.5 µM
- GI50 (A549/ATCC; Homo sapiens): 2.62 µM
- CC50 (A549/ATCC; [1]): > 100 µM
- GI50 (SF-295; Homo sapiens): 2.6 µM
- CC50 (SF-295; [1]): > 100 µM
- TGI (SF-295): 20.5 µM
- GI50 (TK-10; Homo sapiens): 5.34 µM
- LC50 (TK-10; Homo sapiens): > 100 µM
- TGI (TK-10): 41.2 µM
- TGI (HT29): 46.6 µM
- GI50 (HT29; Homo sapiens, HT-29): 18.6 µM
- CC50 (HT29; Homo sapiens, HT-29, read-out: LC50 (the source's name)): > 100 µM
- TGI (786-0): 18.7 µM
- GI50 (786-0; Homo sapiens): 2.99 µM
- LC50 (50% net cell kill) (786-0; Homo sapiens): > 100 µM
- GI50 (OVCAR-3; Homo sapiens): 0.9 µM
- CC50 (OVCAR-3; [1]): 24.8 µM
- TGI (OVCAR-3): 3.84 µM
- TGI (T-47D): 36.9 µM
- GI50 (T-47D; Homo sapiens, T47D): 4.78 µM
- CC50 (T-47D; Homo sapiens, T47D, read-out: LC50 (the source's name)): > 100 µM
- GI50 (MDA-MB-468; Homo sapiens): 2.42 µM
- CC50 (MDA-MB-468; [1]): > 100 µM
- TGI (MDA-MB-468): 8.48 µM
- GI50 (SW-620; Homo sapiens): 0.31 µM
- CC50 (SW-620; [1]): 75 µM
- TGI (SW-620): 15.3 µM
- GI50 (NCI-H226; Homo sapiens): 18.6 µM
- LC50 (50% lethal concentration) (NCI-H226; Homo sapiens): > 100 µM
- TGI (NCI-H226): 57.9 µM
- GI50 (MCF7; Homo sapiens): 2.81 µM
- CC50 (MCF7; [1]): > 100 µM
- TGI (MCF7): >100 µM
- GI50 (UO-31; Homo sapiens): 0.46 µM
- CC50 (UO-31; [1]): > 100 µM
- TGI (UO-31): >100 µM
- GI50 (IGROV1; Homo sapiens, IGROV-1): 4.57 µM
- CC50 (IGROV1; Homo sapiens, IGROV-1, read-out: LC50 (the source's name)): > 100 µM
- TGI (IGROV1): >100 µM
